Bounds are passed on as bounds.

This assay has as its target T1, BRD4 (BD1) (Homo sapiens, UniProt O60885).
T1 construct: with relatively long constructs also being possible, preferably amino acids 44-168; made in house; host or cells: E. coli
The assay is described as follows: Binding assay BRD4/acetylated peptide H4 (TR-FRET protein-protein interaction assay). The source says:
Binding Assay BRD4/Acetylated Peptide H4 (“PRO”)
To assess the BRD4 binding of the substances described in the present application, their ability to inhibit the interaction between BRD4 (BD1) and acetylated histone H4 in a dose-dependent manner was quantified (Filippakopoulos et al., Cell, 2012, 149: 214-231).
For this purpose, use was made of a time-resolved fluorescence resonance energy transfer (TR-FRET) assay which measured binding between N-terminally His6-tagged BRD4 (BD1) (amino acids 67-152, with relatively long constructs also being possible, preferably amino acids 44-168) and a synthetic acetylated histone H4 (Ac—H4) peptide having the sequence GRGK(Ac)GGK(Ac)GLGK(Ac)GGAK(Ac)RHGSGSK-biotin. The recombinant BRD4 protein-produced according to Filippakopoulos et al., Cell, 2012, 149: 214-231—was expressed in E. coli and purified by (Ni-NTA) affinity and (Sephadex G-75) size exclusion chromatography. The Ac—H4 peptide is commercially available, for example from Biosyntan (Berlin, Germany). In a typical assay, 11 different concentrations of each substance (0.1 nM, 0.33 nM, 1.1 nM, 3.8 nM, 13 nM, 44 nM, 0.15 μM, 0.51 μM, 1.7 μM, 5.9 μM and 20 μM) were measured in duplicate on the same microtitre plate. To this end, 100-fold concentrated solutions in DMSO were prepared by serial dilution (1:3.4) of a 2 mM stock solution in a clear 384-well microtitre platte (Greiner Bio-One, Frickenhausen, Germany) 50 nl of these were transferred into a black test plate (Greiner Bio-One, Frickenhausen, Germany). The test was started by addition of 2 μl of a 2.5-fold concentrated BRD4 solution (final concentration usually 10 nM in the […] of the reaction volume) in aqueous assay buffer [50 mM HEPES pH 7.5. 50 mM sodium chloride (NaCl), 0.25 mM CHAPS and 0.05% serum albumin (BSA)] to the substances in the test plate. This was followed by a 10-minute incubation step at 22° C. to pre-equilibrate putative complexes between BRD4 and the substances.
The mixture was then incubated in the dark for one hour at 22° C. and then for at least 3 hours and at most overnight at 4° C. Formation of BRD4/Ac—H4 complexes was determined by measuring the resonance energy transfer from the streptavidin-Eu cryptate to the anti-6His-XL665 antibody in the reaction. To this end, the fluorescence emission was measured at 620 nm and 665 nm after excitation at 330-350 nm in a TR-FRET measuring device, for example a Rubystar or Pherastar (both from BMG Lab Technologies, Offenburg, Germany) or a Viewlux (Perkin-Elmer). The ratio of the emission at 665 nm and at […] was used as an indicator for the amount of BRD4/Ac—H4 complexes formed.
The data obtained (ratios) were normalized, with 0% inhibition corresponding to the mean of the measured values of a set of controls (usually 32 data points) comprising all reagents. Here, 50 nl of DMSO (100%) were used instead of test substances. An inhibition of 100% corresponded to the mean of the measured values of a set of controls (usually 32 data points) comprising all reagents except for BRD4. The IC50 was determined by regression analysis based on a 4-parameter equation (minimum, maximum, IC50, Hill; Y=Max+(Min−Max)/(1+(X/IC 50)^Hill)).
For orientation: Time-resolved FRET reads energy transfer from a long-lived donor to a nearby acceptor.
Turning to `CNC(=O)N1N=C(c2ccc(Cl)cc2)c2ccc(N3CCS(=O)(=O)CC3)cc2CC1C` (racemic) [Example 235, (±)-1-(4-chlorophenyl)-7-(1,1-dioxidothiomorpholin-4-yl)-N,4-dimethyl-4,5-dihydro-3H-2,3-benzodiazepine-3-carboxamide], the IC50 (commonly the point on the concentration scale where inhibition reaches its midpoint) amounted to 5020 nM.

Take `CNC(=O)N1N=C(c2ccc(Cl)cc2)c2ccc(-c3ccc(O)nc3)cc2CC1C` (racemic) [Example 241, (±)-1-(4-chlorophenyl)-7-(6-hydroxypyridin-3-yl)-N,4-dimethyl-4,5-dihydro-3H-2,3-benzodiazepine-3-carboxamide]: the IC50 was 2560 nM.

`CNC(=O)N1N=C(c2ccc(-c3cccnc3Cl)cc2)c2cc(OC)c(OC)cc2C[C@H]1C` [Example 4.1, (R)-1-[4-(2-chloropyridin-3-yl)phenyl]-7,8-dimethoxy-N,4-dimethyl-4,5-dihydro-3H-2,3-benzodiazepine-3-carboxamide] yielded an IC50 of 780 nM. This IC50 lies about 3.3-fold lower than the previous one.

Compound `CCC1Cc2cc(OC)c(OC)cc2C(c2ccc(N3CCOCC3=O)cc2)=NN1C(=O)NC` (racemic) [Example 226, (±)-4-ethyl-7,8-dimethoxy-N-methyl-1-[4-(3-oxomorpholin-4-yl)phenyl]-4,5-dihydro-3H-2,3-benzodiazepine-3-carboxamide] showed an IC50 of 8760 nM.

Compound `CCC1Cc2cc(OC)c(OC)cc2C(c2ccc(N3CCN(C(C)=O)CC3)cc2)=NN1C(=O)NC` (racemic) [Example 205, (±)-1-[4-(4-acetylpiperazin-1-yl)phenyl]-4-ethyl-7,8-dimethoxy-N-methyl-4,5-dihydro-3H-2,3-benzodiazepine-3-carboxamide] yielded a 50% inhibitory concentration (IC50) of 1080 nM. This IC50 is about 8.1-fold lower than that of the compound before.

Regarding `CNC(=O)N1N=C(c2ccc(Cl)cc2)c2ccc(-c3ccncc3)cc2CC1C` (racemic) [Example 240, (±)-1-(4-chlorophenyl)-N,4-dimethyl-7-(pyridin-4-yl)-4,5-dihydro-3H-2,3-benzodiazepine-3-carboxamide], the IC50 was 4500 nM.

As to `CNC(=O)N1N=C(c2ccc(Cl)cc2)c2cc(OCCCN3CCN(C)CC3)ccc2C[C@H]1C` [Example 164.1, (4R)-1-(4-chlorophenyl)-N,4-dimethyl-8-[3-(4-methylpiperazin-1-yl)propoxy]-4,5-dihydro-3H-2,3-benzodiazepine-3-carboxamide], the IC50 was > 20000 nM.

For `CNC(=O)N1N=C(c2ccc(N3CC[C@H](O)C3)cc2)c2cc(OC)c(OC)cc2C[C@@H]1C` [Example 190.1, (4S)-1-{4-[(3S)-3-hydroxypyrrolidin-1-yl]phenyl}-7,8-dimethoxy-N,4-dimethyl-4,5-dihydro-3H-2,3-benzodiazepine-3-carboxamide], the IC50 worked out at 30 nM.

With `CNC(=O)N1N=C(c2ccc(N3CCN(C)CC3)cc2)c2ccc(N3CCN(C)CC3)cc2CC1C` (racemic) [Example 237, (±)-N,4-dimethyl-7-(4-methylpiperazin-1-yl)-1-[4-(4-methylpiperazin-1-yl)phenyl]-4,5-dihydro-3H-2,3-benzodiazepine-3-carboxamide], the IC50 was 1070 nM.

`CC[C@@H]1Cc2cc(OC)c(OC)cc2C(c2ccc(N3CCN(S(C)(=O)=O)CC3)cc2)=NN1C(=O)NC` [Example 203.2, (4R)-4-ethyl-7,8-dimethoxy-N-methyl-1-{4-[4-(methylsulphonyl)piperazin-1-yl]phenyl}-4,5-dihydro-3H-2,3-benzodiazepine-3-carboxamide]: the concentration for half-maximal inhibition (IC50) was determined as 11200 nM.

Turning to `CCNC(=O)N1N=C(c2ccc(N3CCN(C)CC3)cc2)c2cc(OC)c(OC)cc2CC1C` (racemic) [Example 261, (±)-N-Ethyl-7,8-dimethoxy-4-methyl-1-[4-(4-methylpiperazin-1-yl)phenyl]-4,5-dihydro-3H-2,3-benzodiazepine-3-carboxamide], the IC50 worked out at 1490 nM.

In turn, `CCC1Cc2cc(OC)c(OC)cc2C(c2ccc(N3CCC(O)CC3)cc2)=NN1C(=O)NC` (racemic) [Example 207, (±)-4-ethyl-1-[4-(4-hydroxypiperidin-1-yl)phenyl]-7,8-dimethoxy-N-methyl-4,5-dihydro-3H-2,3-benzodiazepine-3-carboxamide] registered an IC50 of 1220 nM.

Consider `CNC(=O)N1N=C(c2ccc(Cl)cc2)c2ccc(-c3c(C)noc3C)cc2CC1C` (racemic) [Example 242, (±)-1-(4-chlorophenyl)-7-(3,5-dimethyl-1,2-oxazol-4-yl)-N,4-dimethyl-4,5-dihydro-3H-2,3-benzodiazepine-3-carboxamide], for which the IC50 is 2690 nM.

`CNC(=O)N1N=C(c2ccc(N3CCN(C)CC3)cc2)c2cc(OC(F)(F)F)ccc2C[C@H]1C` [Example 250.1, (4R)-N,4-dimethyl-1-[4-(4-methyl-1-piperazinyl)phenyl]-8-(trifluoromethoxy)-4,5-dihydro-3H-2,3-benzodiazepine-3-carboxamide]: the half-inhibitory concentration (IC50) stood at 9890 nM.

For the compound `CNC(=O)N1N=C(c2ccc(-c3c(C)nn(C)c3C)cc2)c2cc(OC(F)(F)F)ccc2CC1C` (racemic) [Example 249, (±)-N,4-dimethyl-8-(trifluoromethoxy)-1-[4-(1,3,5-trimethyl-1H-pyrazol-4-yl)phenyl]-4,5-dihydro-3H-2,3-benzodiazepine-3-carboxamide], the half-inhibitory concentration (IC50) is 30 nM.

`CNC(=O)N1N=C(c2ccc(N3CCC(=O)CC3)cc2)c2cc(OC)c(OC)cc2CC1C` (racemic) [Example 196, (±)-7,8-dimethoxy-N,4-dimethyl-1-[4-(4-oxopiperidin-1-yl)phenyl]-4,5-dihydro-3H-2,3-benzodiazepine-3-carboxamide] returned an IC50 of 90 nM.

Take `CNC(=O)N1N=C(c2ccc(Cl)cc2)c2ccc(N3CCCC3)cc2CC1C` (racemic) [Example 234, (±)-1-(4-chlorophenyl)-N,4-dimethyl-7-(pyrrolidin-1-yl)-4,5-dihydro-3H-2,3-benzodiazepine-3-carboxamide]: the IC50 stood at 3830 nM. Compared with the last compound, the IC50 is about 43-fold higher.

Regarding `CNC(=O)N1N=C(c2ccc(-c3ccc(C(F)(F)F)nc3)cc2)c2cc(OC)c(OC)cc2C[C@H]1C` [Example 50.2, (4R)-7,8-dimethoxy-N,4-dimethyl-1-{4-[6-(trifluoromethyl)pyridin-3-yl]phenyl}-4,5-dihydro-3H-2,3-benzodiazepine-3-carboxamide], the IC50 turned out to be 18900 nM.

In the case of `CCC1Cc2cc(OC)c(OC)cc2C(c2ccc(N3CCOCC3)cc2)=NN1C(=O)NC` (racemic) [Example 208, (±)-4-ethyl-7,8-dimethoxy-N-methyl-1-[4-(morpholin-4-yl)phenyl]-4,5-dihydro-3H-2,3-benzodiazepine-3-carboxamide], the IC50 stood at 1100 nM.

`COc1cc2c(cc1OC)C(c1ccc(N3CCN(C)CC3)cc1)=NN(C(=O)C1CC1)C(C)C2` (racemic) [Example 256, (±)-3-(cyclopropylcarbonyl)-7,8-dimethoxy-4-methyl-1-[4-(4-methylpiperazin-1-yl)phenyl]-4,5-dihydro-3H-2,3-benzodiazepine] displayed an IC50 of 610 nM.

In turn, `CCC(=O)N1N=C(c2ccc(N3CCN(C)CC3)cc2)c2cc(OC)c(OC)cc2CC1C` (racemic) [Example 255, (±)-7,8-dimethoxy-4-methyl-1-[4-(4-methylpiperazin-1-yl)phenyl]-3-(1-oxopropyl)-4,5-dihydro-3H-2,3-benzodiazepine] registered an IC50 of 240 nM.

`CNC(=O)N1N=C(c2ccc(N3CC(C)(O)C3)cc2)c2cc(OC)c(OC)cc2C[C@H]1C` [Example 185.1, (4R)-1-[4-(3-hydroxy-3-methylazetidin-1-yl)phenyl]-7,8-dimethoxy-N,4-dimethyl-4,5-dihydro-3H-2,3-benzodiazepine-3-carboxamide] returned an IC50 of 1490 nM.

`CNC(=O)N1N=C(c2ccc(-c3ccccc3C(=O)O)cc2)c2cc(OC)c(OC)cc2CC1C` (racemic) [Example 6, (±)-4′-{7,8-dimethoxy-4-methyl-3-[(methylamino)carbonyl]-4,5-dihydro-3H-2,3-benzodiazepin-1-yl}biphenyl-2-carboxylic acid]: the IC50 was determined as 910 nM.

The record behind these values is patent US9890147B2 (BAYER PHARMA AKTIENGESELLSCHAFT, priority 2012, dated 2018).
